Patent publication US6046171A, “6,11-bridged erythromycin derivatives” (priority 1998, dated 2000)
Converted amounts (≈) assume the structure as drawn.

How the values were obtained:
Type in all cases: cell-based
[1] = system: Staphylococcus aureus ATCC 6538P; assay: in vitro antibacterial MIC, agar dilution (BHI agar, Steers replicator); settings: organism code AA; 35-37° C., 20 to 24 hours; unit assumed
Protocol: (§1) Representative compounds of the present invention were assayed in vitro for antibacterial activity as follows: Twelve petri dishes containing successive aqueous dilutions of the test compound mixed with 10 mL of sterilized Brain Heart Infusion (BHI) agar (Difco 0418-01-5) were prepared. Each plate was inoculated with 1:100 (or 1:10 for slow-growing strains, such as Micrococcus and Streptococcus) dilutions of up to 32 different microorganisms, using a Steers replicator block. […] In addition, a control plate, using BHI agar containing no test compound, was prepared and incubated at the beginning and end of each test.
(§2) An additional plate containing a compound having known susceptibility patterns for the organisms being tested and belonging to the same antibiotic class as the test compound was also prepared and incubated as a further control, as well as to provide test-to-test comparability.
(§3) After incubation, each plate was visually inspected. The minimum inhibitory concentration (MIC) was defined as the lowest concentration of drug yielding no growth, a slight haze, or sparsely isolated colonies on the inoculum spot as compared to the growth control.

[2] = system: Streptococcus bovis A-5169; assay: in vitro antibacterial MIC, agar dilution; settings: organism code JJ; 35-37° C., 20 to 24 hours; unit assumed
Protocol: as §1, §2, §3

[3] = system: Staphylococcus aureus A-5278; assay: in vitro antibacterial MIC, agar dilution; settings: organism code CC; 35-37° C., 20 to 24 hours; unit assumed
Protocol: as §1, §2, §3

[4] = system: Escherichia coli JUHL; assay: in vitro antibacterial MIC, agar dilution; settings: organism code QQ; 35-37° C., 20 to 24 hours; unit assumed
Protocol: as §1, §2, §3

[5] = system: Enterococcus faecium ATCC 8Q43; assay: in vitro antibacterial MIC, agar dilution; settings: organism code II; 35-37° C., 20 to 24 hours; unit assumed
Protocol: as §1, §2, §3

[6] = system: Streptococcus pyogenes 930; assay: in vitro antibacterial MIC, agar dilution; settings: organism code MM; 35-37° C., 20 to 24 hours; unit assumed
Protocol: as §1, §2, §3

[7] = system: Staphylococcus epidermidis 3519; assay: in vitro antibacterial MIC, agar dilution; settings: organism code HH; 35-37° C., 20 to 24 hours; unit assumed
Protocol: as §1, §2, §3

[8] = system: Streptococcus Pheumoniae 5649; assay: in vitro antibacterial MIC, agar dilution; settings: organism code ZZA; 35-37° C., 20 to 24 hours; unit assumed
Protocol: as §1, §2, §3

[9] = system: Streptococcus Pheumoniae GYR 1171; assay: in vitro antibacterial MIC, agar dilution; settings: organism code YY; 35-37° C., 20 to 24 hours; unit assumed
Protocol: as §1, §2, §3

[10] = system: Nocardia Asteroides ATCC9970; assay: in vitro antibacterial MIC, agar dilution; settings: organism code VV; 35-37° C., 20 to 24 hours; unit assumed
Protocol: as §1, §2, §3

[11] = system: Staphylococcus aureus NCTC10649M; assay: in vitro antibacterial MIC, agar dilution; settings: organism code EE; 35-37° C., 20 to 24 hours; unit assumed
Protocol: as §1, §2, §3

[12] = system: Escherichia coli SS; assay: in vitro antibacterial MIC, agar dilution; settings: organism code RR; 35-37° C., 20 to 24 hours; unit assumed
Protocol: as §1, §2, §3

[13] = system: Streptococcus Pheumoniae ATCC6303; assay: in vitro antibacterial MIC, agar dilution; settings: organism code XX; 35-37° C., 20 to 24 hours; unit assumed
Protocol: as §1, §2, §3

[14] = system: Staphylococcus aureus 1775; assay: in vitro antibacterial MIC, agar dilution; settings: organism code GG; 35-37° C., 20 to 24 hours; unit assumed
Protocol: as §1, §2, §3

[15] = system: Micrococcus luteus ATCC 9341; assay: in vitro antibacterial MIC, agar dilution; settings: organism code OO; 35-37° C., 20 to 24 hours; unit assumed
Protocol: as §1, §2, §3

[16] = system: Staphylococcus aureus CMX 642A; assay: in vitro antibacterial MIC, agar dilution; settings: organism code DD; 35-37° C., 20 to 24 hours; unit assumed
Protocol: as §1, §2, §3

[17] = system: Haemophilis Influenzae DILL AMP R; assay: in vitro antibacterial MIC, agar dilution; settings: organism code WW; 35-37° C., 20 to 24 hours; unit assumed
Protocol: as §1, §2, §3

[18] = system: Streptococcus pyogenes PIU 2548; assay: in vitro antibacterial MIC, agar dilution; settings: organism code NN; 35-37° C., 20 to 24 hours; unit assumed
Protocol: as §1, §2, §3

[19] = system: Escherichia coli DC-2; assay: in vitro antibacterial MIC, agar dilution; settings: organism code SS; 35-37° C., 20 to 24 hours; unit assumed
Protocol: as §1, §2, §3

[20] = system: Micrococcus luteus ATCC 4698; assay: in vitro antibacterial MIC, agar dilution; settings: organism code PP; 35-37° C., 20 to 24 hours; unit assumed
Protocol: as §1, §2, §3

[21] = system: Staphylococcus aureus CMX 553; assay: in vitro antibacterial MIC, agar dilution; settings: organism code FF; 35-37° C., 20 to 24 hours; unit assumed
Protocol: as §1, §2, §3

[22] = system: Mycobacterium smegmatis ATCC 114; assay: in vitro antibacterial MIC, agar dilution; settings: organism code UU; 35-37° C., 20 to 24 hours; unit assumed
Protocol: as §1, §2, §3

[23] = system: Streptococcus agalactiae CMX 508; assay: in vitro antibacterial MIC, agar dilution; settings: organism code KK; 35-37° C., 20 to 24 hours; unit assumed
Protocol: as §1, §2, §3

[24] = system: Streptococcus pyogenes EES61; assay: in vitro antibacterial MIC, agar dilution; settings: organism code LL; 35-37° C., 20 to 24 hours; unit assumed
Protocol: as §1, §2, §3

[25] = system: Staphylococcus aureus A5177; assay: in vitro antibacterial MIC, agar dilution; settings: organism code BB; 35-37° C., 20 to 24 hours; unit assumed
Protocol: as §1, §2, §3

[26] = system: Candida albicans CCH 442; assay: in vitro MIC, agar dilution; settings: organism code TT; 35-37° C., 20 to 24 hours; unit assumed
Protocol: as §1, §2, §3

[27] = system: Streptococcus Pheumoniae 5979; assay: in vitro antibacterial MIC, agar dilution; settings: organism code ZZ; 35-37° C., 20 to 24 hours; unit assumed
Protocol: as §1, §2, §3

| Compound | MIC [1] [µg/mL] | MIC [2] [µg/mL] | MIC [3] [µg/mL] | MIC [4] [µg/mL] | MIC [5] [µg/mL] | MIC [6] [µg/mL] | MIC [7] [µg/mL] | MIC [8] [µg/mL] | MIC [9] [µg/mL] | MIC [10] [µg/mL] | MIC [11] [µg/mL] | MIC [12] [µg/mL] | MIC [13] [µg/mL] | MIC [14] [µg/mL] | MIC [15] [µg/mL] | MIC [16] [µg/mL] | MIC [17] [µg/mL] | MIC [18] [µg/mL] | MIC [19] [µg/mL] | MIC [20] [µg/mL] | also measured |
| --- | --- | --- | --- | --- | --- | --- | --- | --- | --- | --- | --- | --- | --- | --- | --- | --- | --- | --- | --- | --- | --- |
| CC[C@H]1OC(=O)[C@H](C)[C@@H](O[C@H]2C[C@@](C)(OC)[C@@H](O)[C@H](C)O2)[C@H](C)[C@@H](O[C@@H]2O[C@H](C)C[C@H](N(C)C)[C@H]2O)[C@](C)(O)C[C@@H](C)C(=O)[C@H](C)[C@@H](O)[C@]1(C)O [Ery. A, Erythromycin A, reference compound] | 0.2 (≈ 0.273 µM) | 0.02 (≈ 0.0273 µM) | > 100 | > 100 | 0.05 (≈ 0.0681 µM) | > 100 | 0.39 (≈ 0.531 µM) | 16 (≈ 21.8 µM) | 0.06 (≈ 0.0818 µM) | 0.1 (≈ 0.136 µM) | 0.39 (≈ 0.531 µM) | 0.78 (≈ 1.06 µM) | 0.06 (≈ 0.0818 µM) | > 100 | 0.05 (≈ 0.0681 µM) | 0.39 (≈ 0.531 µM) | 4 (≈ 5.45 µM) | 6.2 (≈ 8.45 µM) | > 100 | 0.2 (≈ 0.273 µM) | MIC [21]: 0.39 µg/mL (≈ 0.531 µM); MIC [22]: 3.1 µg/mL (≈ 4.22 µM); MIC [23]: 0.05 µg/mL (≈ 0.0681 µM); MIC [24]: 0.05 µg/mL (≈ 0.0681 µM); MIC [25]: 3.1 µg/mL (≈ 4.22 µM); MIC [26]: > 100 µg/mL |
| CC[C@H]1OC(=O)[C@H](C)[C@@H](O[C@H]2C[C@@](C)(OC)[C@@H](O)[C@H](C)O2)[C@H](C)[C@@H](O[C@@H]2O[C@H](C)C[C@H](N(C)C)[C@H]2O)[C@@]2(C)C[C@@H](C)C(=O)[C@H](C)[C@H]3N(CC=CCO2)C(=O)O[C@]13C [Example 14] | 0.2 (≈ 0.247 µM) | 0.05 (≈ 0.0617 µM) | > 100 | 50 (≈ 61.7 µM) | 0.1 (≈ 0.123 µM) | > 100 | 0.2 (≈ 0.247 µM) | 16 (≈ 19.7 µM) | 0.03 (≈ 0.037 µM) | 0.05 (≈ 0.0617 µM) | 0.39 (≈ 0.481 µM) | 0.78 (≈ 0.962 µM) | 0.03 (≈ 0.037 µM) | > 100 | 0.05 (≈ 0.0617 µM) | 0.2 (≈ 0.247 µM) | 8 (≈ 9.86 µM) | 6.2 (≈ 7.64 µM) | > 100 | 0.39 (≈ 0.481 µM) | MIC [27]: > 128 µg/mL; MIC [21]: 0.2 µg/mL (≈ 0.247 µM); MIC [22]: 0.78 µg/mL (≈ 0.962 µM); MIC [23]: 0.05 µg/mL (≈ 0.0617 µM); MIC [24]: 0.05 µg/mL (≈ 0.0617 µM); MIC [25]: 3.1 µg/mL (≈ 3.82 µM); MIC [26]: > 100 µg/mL |
| CC[C@H]1OC(=O)[C@H](C)[C@@H](O[C@H]2C[C@@](C)(OC)[C@@H](O)[C@H](C)O2)[C@H](C)[C@@H](O[C@@H]2O[C@H](C)C[C@H](N(C)C)[C@H]2O)[C@@]2(C)C[C@@H](C)C(=O)[C@H](C)[C@H]3N(CC(=O)CC=CCO2)C(=O)O[C@]13C [Example 20] | 3.1 (≈ 3.63 µM) | 0.2 (≈ 0.234 µM) | > 100 | > 100 | 0.2 (≈ 0.234 µM) | 100 (≈ 117 µM) | 3.1 (≈ 3.63 µM) | 1 (≈ 1.17 µM) | 0.25 (≈ 0.293 µM) | 0.2 (≈ 0.234 µM) | 3.1 (≈ 3.63 µM) | 3.1 (≈ 3.63 µM) | 0.25 (≈ 0.293 µM) | > 100 | 0.2 (≈ 0.234 µM) | 3.1 (≈ 3.63 µM) | 8 (≈ 9.38 µM) | 25 (≈ 29.3 µM) | > 100 | 0.78 (≈ 0.914 µM) | MIC [27]: 128 µg/mL (≈ 150 µM); MIC [21]: 3.1 µg/mL (≈ 3.63 µM); MIC [22]: 0.39 µg/mL (≈ 0.457 µM); MIC [23]: 0.39 µg/mL (≈ 0.457 µM); MIC [24]: 0.2 µg/mL (≈ 0.234 µM); MIC [25]: 12.5 µg/mL (≈ 14.7 µM); MIC [26]: > 100 µg/mL |
